Results on two compounds are retold here after PMC2885805 (Pesticide biochemistry and physiology, 2010).

Assay [1] deals with non-desensitizing GluCl (cockroach neurons). The assay is described as follows: whole-cell patch clamp, glutamate-induced chloride current. The format is cell-based, Periplaneta americana. The note with it: cited from earlier work.
Assay [2] deals with desensitizing GluCl (cockroach neurons). Described as above. Format: cell-based, Periplaneta americana. The conditions noted are these: 30 μM picrotoxinin; desensitizing component.
Another assay has as its system cockroach GABA receptor. Put plainly: whole-cell patch clamp, GABA-induced chloride current. The format is cell-based, Periplaneta americana. The note with it: resting receptor; holding potential −60 mV, symmetric chloride; cited from earlier work.
The next assay relates to rat GABAA receptor. Described as above. The conditions noted are these: closed channel; rat dorsal root ganglion neurons; cited from earlier work. The format is cell-based.
Assay [3] concerns desensitizing GluCl (cockroach neurons). The assay is described as follows: whole-cell patch clamp, glutamate-induced chloride current. The format is cell-based, Periplaneta americana. The conditions noted are these: peak current measured; cited from earlier work.

In the case of `C=C(C)[C@@H]1[C@H]2OC(=O)[C@@H]1[C@]1(O)C[C@H]3O[C@]34C(=O)O[C@H]2[C@]14C` [picrotoxinin], in assay [1] (non-desensitizing component), the IC50 was 4100 ± 1000 nM. The “% inhibition at 30 μM” value in assay [2] is reported as 8.2 ± 2.9%.

Consider `N#Cc1nn(-c2c(Cl)cc(C(F)(F)F)cc2Cl)c(N)c1[S+]([O-])C(F)(F)F` (stereo not drawn) [fipronil], for which the IC50 is 10 ± 0.9 nM in assay [1] (steady-state current measured, use-dependent open-channel block); 28 nM in the assay on cockroach GABA receptor; 1660 nM in the assay on rat GABAA receptor; 801 ± 207 nM in assay [3].
